Laboratory results: ChEMBL document CHEMBL5465560, “Selectivity Literature for EUbOPEN Chemogenomic Library” (2024)
Values belong to the molecule of their own block, whether it stands above or below them.

What was measured:
[1] = target: Serine/threonine-protein kinase RIO2 (Homo sapiens) (UniProt Q9BVS4); assay: Selectivity interaction (Ambit KINOMEscan and KiNATiv profiling in Jurkat cells) EUB0000090b RIOK2; assay type: cell-based; conditions: at 1 µM
[2] = target: T1, Myosin light chain kinase family member 4 (Homo sapiens) (UniProt Q86YV6); assay: Selectivity interaction (KinomeScan (DiscoverX)) EUB0000655a MYLK4; conditions: at 10 µM
T1 sequence (whole entry): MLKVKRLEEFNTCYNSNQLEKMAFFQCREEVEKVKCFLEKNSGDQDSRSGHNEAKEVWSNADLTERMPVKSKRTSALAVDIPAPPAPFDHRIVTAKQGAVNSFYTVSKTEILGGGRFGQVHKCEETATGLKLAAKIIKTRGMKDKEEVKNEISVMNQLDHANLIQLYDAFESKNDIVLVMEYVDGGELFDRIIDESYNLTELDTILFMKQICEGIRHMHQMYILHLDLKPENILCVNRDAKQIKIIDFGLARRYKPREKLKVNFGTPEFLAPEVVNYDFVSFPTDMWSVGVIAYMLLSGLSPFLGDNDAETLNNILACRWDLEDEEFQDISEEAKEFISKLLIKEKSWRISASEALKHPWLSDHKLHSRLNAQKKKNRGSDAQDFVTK

[3] = target: T2, Ephrin type-B receptor 3 (Homo sapiens) (UniProt P54753); assay: Selectivity interaction (KinomeScan (DiscoverX)) EUB0000045b EPHB3
T2 sequence (whole entry): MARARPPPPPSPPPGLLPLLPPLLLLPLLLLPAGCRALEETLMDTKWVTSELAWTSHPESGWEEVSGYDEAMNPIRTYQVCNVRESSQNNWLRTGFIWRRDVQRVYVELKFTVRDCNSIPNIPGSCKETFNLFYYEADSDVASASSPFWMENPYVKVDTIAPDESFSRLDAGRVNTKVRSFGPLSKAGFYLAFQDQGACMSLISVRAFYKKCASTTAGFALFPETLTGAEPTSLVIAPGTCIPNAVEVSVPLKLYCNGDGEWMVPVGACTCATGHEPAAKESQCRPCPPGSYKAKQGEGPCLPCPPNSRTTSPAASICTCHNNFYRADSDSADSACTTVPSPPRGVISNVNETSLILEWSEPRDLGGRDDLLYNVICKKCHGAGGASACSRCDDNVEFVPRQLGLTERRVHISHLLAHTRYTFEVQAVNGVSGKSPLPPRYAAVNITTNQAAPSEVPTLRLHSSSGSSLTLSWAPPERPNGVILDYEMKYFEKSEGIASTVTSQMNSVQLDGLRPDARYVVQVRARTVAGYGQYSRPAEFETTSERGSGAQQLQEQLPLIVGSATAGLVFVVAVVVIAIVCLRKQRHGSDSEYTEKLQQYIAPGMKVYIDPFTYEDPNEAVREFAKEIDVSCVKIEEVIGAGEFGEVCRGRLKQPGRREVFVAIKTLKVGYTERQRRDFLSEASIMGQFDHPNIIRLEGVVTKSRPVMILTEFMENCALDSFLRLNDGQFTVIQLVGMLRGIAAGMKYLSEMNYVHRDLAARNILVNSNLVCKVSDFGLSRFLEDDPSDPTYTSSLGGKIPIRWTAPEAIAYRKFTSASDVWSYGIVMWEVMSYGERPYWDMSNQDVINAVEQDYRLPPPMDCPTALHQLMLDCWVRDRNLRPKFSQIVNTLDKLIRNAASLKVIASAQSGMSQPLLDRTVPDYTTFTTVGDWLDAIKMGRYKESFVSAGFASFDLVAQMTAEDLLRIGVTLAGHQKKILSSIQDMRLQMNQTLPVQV

[4] = target: T3, Serine/threonine-protein kinase 17B (Homo sapiens) (UniProt O94768); assay: Selectivity interaction (KinomeScan (DiscoverX)) EUB0000595a STK17B; conditions: at 10 µM
T3 sequence (whole entry): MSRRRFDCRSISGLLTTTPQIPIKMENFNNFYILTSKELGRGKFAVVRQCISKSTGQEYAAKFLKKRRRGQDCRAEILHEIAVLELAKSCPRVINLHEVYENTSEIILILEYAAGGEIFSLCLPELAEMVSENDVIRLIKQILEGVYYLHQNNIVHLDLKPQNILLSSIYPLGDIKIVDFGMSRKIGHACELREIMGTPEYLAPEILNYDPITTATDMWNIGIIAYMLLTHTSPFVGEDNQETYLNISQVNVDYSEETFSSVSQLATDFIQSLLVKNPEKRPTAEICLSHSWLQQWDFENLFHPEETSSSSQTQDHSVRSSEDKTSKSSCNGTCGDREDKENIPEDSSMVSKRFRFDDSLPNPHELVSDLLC

[5] = target: T4, Protein kinase C iota type (Homo sapiens) (UniProt P41743); assay: Selectivity interaction (Upstate Kinase Profiler service (Millipore)) EUB0000056c PRKCI; conditions: at 1 µM
T4 sequence (whole entry): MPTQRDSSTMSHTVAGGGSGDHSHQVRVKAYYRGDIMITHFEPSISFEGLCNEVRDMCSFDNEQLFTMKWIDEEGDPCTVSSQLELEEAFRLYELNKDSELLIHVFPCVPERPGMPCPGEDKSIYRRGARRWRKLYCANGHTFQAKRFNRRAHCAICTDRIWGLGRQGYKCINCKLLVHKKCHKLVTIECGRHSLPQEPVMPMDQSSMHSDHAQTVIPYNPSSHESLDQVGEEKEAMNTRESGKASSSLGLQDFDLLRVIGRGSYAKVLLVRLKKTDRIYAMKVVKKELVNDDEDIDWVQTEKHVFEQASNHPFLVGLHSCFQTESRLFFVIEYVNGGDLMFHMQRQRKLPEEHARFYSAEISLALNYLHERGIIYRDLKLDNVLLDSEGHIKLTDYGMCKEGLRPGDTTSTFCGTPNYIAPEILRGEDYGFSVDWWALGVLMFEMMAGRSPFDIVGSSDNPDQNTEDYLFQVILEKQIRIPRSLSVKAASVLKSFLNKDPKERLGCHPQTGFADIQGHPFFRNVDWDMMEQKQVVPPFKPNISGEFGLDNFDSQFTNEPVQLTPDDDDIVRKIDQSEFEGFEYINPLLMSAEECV

[6] = target: Histone-lysine N-methyltransferase SETD2 (Homo sapiens) (UniProt Q9BYW2); conditions: at 1 µM
[7] = target: Vascular endothelial growth factor receptor 3 (Homo sapiens, UniProt P35916); conditions: at 10 µM
[8] = target: Calcium/calmodulin-dependent protein kinase type 1D (Homo sapiens) (UniProt Q8IU85); assay: Selectivity interaction (ActivX KiNativ screen (kinase selectivity in THP-1 cell lysates)) EUB0000639a CAMK1D; assay type: subcellular; conditions: lysate, at 5 µM
[9] = target: Protein kinase C gamma type (Homo sapiens) (UniProt P05129); assay: Selectivity interaction (Kinase panel (Invitrogen)) EUB0000639a PRKCG; conditions: at 200 nM
[10] = target: Interferon-induced, double-stranded RNA-activated protein kinase (Homo sapiens) (UniProt P19525); assay: Selectivity interaction (ProQinase) EUB0000171b EIF2AK2
Sequence of Interferon-induced, double-stranded RNA-activated protein kinase (Homo sapiens) (P19525 whole entry): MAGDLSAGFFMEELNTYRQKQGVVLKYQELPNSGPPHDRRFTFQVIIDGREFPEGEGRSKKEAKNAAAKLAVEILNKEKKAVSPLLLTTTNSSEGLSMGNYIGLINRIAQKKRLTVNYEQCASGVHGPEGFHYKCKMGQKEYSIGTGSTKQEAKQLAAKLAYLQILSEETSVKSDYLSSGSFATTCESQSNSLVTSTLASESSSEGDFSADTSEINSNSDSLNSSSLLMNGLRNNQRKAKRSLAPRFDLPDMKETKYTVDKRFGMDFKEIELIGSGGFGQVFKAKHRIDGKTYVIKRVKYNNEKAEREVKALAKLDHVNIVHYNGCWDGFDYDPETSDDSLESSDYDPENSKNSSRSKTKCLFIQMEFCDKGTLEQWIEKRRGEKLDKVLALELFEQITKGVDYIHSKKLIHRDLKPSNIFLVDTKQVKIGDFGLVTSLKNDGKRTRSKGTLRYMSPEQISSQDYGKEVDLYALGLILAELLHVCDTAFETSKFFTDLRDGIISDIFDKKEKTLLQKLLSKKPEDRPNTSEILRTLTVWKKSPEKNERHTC

Sequence of Histone-lysine N-methyltransferase SETD2 (Homo sapiens) (Q9BYW2 whole entry): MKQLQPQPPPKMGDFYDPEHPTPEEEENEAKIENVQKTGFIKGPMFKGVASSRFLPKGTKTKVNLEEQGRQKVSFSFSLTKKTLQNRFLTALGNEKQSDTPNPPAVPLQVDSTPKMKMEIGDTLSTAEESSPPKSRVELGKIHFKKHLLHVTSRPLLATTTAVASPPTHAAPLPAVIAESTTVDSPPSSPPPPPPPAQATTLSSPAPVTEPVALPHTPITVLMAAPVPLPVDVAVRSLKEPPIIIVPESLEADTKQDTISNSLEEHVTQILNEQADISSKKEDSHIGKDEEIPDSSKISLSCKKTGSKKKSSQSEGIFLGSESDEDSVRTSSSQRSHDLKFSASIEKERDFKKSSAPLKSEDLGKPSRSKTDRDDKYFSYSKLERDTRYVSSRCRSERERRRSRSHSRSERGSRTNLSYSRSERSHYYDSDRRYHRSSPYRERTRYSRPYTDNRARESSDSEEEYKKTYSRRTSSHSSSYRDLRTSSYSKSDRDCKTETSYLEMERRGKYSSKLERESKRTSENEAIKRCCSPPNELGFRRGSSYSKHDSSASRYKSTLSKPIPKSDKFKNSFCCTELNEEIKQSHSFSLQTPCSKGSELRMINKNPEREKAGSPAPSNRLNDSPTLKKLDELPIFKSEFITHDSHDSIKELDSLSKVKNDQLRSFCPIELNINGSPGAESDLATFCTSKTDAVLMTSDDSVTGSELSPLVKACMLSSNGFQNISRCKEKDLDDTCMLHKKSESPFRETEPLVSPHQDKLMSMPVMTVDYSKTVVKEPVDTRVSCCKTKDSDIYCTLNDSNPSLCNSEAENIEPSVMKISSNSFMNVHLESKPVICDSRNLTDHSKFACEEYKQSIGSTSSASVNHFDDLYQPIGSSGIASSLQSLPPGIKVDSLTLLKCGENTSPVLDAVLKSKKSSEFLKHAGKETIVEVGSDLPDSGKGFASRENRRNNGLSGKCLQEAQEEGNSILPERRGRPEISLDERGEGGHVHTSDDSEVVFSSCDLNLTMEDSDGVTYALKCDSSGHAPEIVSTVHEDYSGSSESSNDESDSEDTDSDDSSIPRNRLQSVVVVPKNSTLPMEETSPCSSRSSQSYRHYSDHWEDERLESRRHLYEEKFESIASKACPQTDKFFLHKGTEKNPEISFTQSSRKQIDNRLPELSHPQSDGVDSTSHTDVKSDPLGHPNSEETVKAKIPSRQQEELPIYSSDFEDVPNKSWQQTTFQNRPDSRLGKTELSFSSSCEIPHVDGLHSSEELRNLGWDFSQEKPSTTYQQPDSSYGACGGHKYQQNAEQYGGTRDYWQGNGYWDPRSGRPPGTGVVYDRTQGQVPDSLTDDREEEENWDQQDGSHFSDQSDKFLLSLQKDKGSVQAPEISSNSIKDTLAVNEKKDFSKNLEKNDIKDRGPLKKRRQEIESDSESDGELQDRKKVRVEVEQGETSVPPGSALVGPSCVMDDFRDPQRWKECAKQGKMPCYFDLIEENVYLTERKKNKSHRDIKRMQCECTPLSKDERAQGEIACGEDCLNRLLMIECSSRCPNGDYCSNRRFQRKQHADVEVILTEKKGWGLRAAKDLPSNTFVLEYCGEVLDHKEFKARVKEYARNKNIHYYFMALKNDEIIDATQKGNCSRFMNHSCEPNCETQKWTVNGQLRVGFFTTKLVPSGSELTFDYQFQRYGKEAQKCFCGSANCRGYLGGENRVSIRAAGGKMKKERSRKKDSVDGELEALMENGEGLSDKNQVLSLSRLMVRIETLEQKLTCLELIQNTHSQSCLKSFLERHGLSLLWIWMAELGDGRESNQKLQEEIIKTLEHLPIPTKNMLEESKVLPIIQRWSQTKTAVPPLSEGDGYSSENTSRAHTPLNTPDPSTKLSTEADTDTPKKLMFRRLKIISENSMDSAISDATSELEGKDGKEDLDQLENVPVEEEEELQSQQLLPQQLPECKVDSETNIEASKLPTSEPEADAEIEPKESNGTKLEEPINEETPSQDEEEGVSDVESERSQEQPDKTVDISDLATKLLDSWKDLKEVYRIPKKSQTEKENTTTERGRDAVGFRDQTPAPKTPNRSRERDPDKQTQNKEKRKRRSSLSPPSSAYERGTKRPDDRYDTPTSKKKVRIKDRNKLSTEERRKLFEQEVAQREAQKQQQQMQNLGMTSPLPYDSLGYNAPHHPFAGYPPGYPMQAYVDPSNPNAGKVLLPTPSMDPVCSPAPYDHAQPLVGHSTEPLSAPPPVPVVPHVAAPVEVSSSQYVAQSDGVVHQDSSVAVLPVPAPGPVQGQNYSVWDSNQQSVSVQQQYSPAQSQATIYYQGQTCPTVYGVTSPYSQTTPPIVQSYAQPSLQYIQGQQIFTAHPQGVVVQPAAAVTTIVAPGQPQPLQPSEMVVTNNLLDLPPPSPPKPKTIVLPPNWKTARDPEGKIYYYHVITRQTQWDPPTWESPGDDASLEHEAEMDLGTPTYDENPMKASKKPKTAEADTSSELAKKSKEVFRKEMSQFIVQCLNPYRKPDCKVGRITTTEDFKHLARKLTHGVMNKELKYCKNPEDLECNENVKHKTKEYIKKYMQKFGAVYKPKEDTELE
Sequence of Calcium/calmodulin-dependent protein kinase type 1D (Homo sapiens) (Q8IU85 whole entry, looked up): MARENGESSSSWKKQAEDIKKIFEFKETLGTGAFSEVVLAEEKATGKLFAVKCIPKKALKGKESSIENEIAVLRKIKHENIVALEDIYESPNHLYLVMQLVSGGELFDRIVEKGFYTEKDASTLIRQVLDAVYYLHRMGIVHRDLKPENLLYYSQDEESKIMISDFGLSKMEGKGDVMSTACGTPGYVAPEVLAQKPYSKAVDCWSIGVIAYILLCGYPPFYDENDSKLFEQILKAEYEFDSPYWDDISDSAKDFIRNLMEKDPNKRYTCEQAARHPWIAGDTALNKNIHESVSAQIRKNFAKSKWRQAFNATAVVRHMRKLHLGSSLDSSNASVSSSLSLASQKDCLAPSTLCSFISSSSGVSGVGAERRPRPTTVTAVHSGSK
Sequence of Serine/threonine-protein kinase RIO2 (Homo sapiens) (Q9BVS4 whole entry, looked up): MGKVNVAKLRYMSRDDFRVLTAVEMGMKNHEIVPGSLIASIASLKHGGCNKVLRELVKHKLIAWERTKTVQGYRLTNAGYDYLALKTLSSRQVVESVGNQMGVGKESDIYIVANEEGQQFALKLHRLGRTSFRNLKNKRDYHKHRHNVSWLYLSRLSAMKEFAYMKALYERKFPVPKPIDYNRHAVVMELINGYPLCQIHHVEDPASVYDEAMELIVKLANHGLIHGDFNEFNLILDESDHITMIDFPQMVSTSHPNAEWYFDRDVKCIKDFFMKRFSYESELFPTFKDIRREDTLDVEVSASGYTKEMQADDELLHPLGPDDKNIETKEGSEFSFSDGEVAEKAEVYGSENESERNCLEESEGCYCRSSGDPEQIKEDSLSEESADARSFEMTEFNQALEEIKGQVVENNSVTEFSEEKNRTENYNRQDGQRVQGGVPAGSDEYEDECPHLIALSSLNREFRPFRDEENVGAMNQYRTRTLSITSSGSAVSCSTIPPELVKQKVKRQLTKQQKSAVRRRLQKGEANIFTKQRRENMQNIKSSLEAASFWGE

Compound: CN(C)C/C=C/C(=O)Nc1ccc(C(=O)N2CCCC(Nc3ncc(Cl)c(-c4c[nH]c5ccccc45)n3)C2)cc1 (configuration not stated)
% of control [1]: 10%

Compound: CN(C)CCOc1ccc(-c2nc(-c3ccncc3)c(-c3ccc4c(c3)CC/C4=N\O)[nH]2)cc1
% of control [2]: 98%

Compound: C=CC(=O)Nc1cc(-n2c(=O)ccc3cnc4ccc(-c5ccc(NS(C)(=O)=O)cc5)cc4c32)ccc1C
% of control ([3]; at 1 µM): 83%
% of control ([3]; at 10 µM): 88%

Compound: COCC(=O)NC/C=C/c1ccc2ncnc(Nc3ccc(Oc4ccc(C)nc4)c(C)c3)c2c1 [CP-724714]
% of control [4]: 100%

% of inhibition [5]: -10%
Compound: Cc1ccc(-c2ccc3c(ccc4sc5c(c43)NC[C@@H](C)NC5=O)n2)cn1

% activity [6]: > 90%
Compound: CNCCN1CCC(c2cc(CN(C)C(=O)c3cccc(Oc4ccccc4)c3)ccn2)CC1

Compound: Cc1cc([C@@H](C)Nc2ccccc2C(=O)O)c2nc(N3CCOCC3)cc(=O)n2c1 [AZD-6482]
% of control [7]: 95%

% of inhibition [8]: 16.3%
% of inhibition [9]: 12.1%
Compound: CC[C@@H]1[C@H](F)C(=O)N[C@@H]1COc1nccc2cc(C(N)=O)c(OC)cc12 [ZIMLOVISERTIB]

% of control ([10]; at 1 µM): 84%
% of control ([10]; at 5 µM): 55%
Compound: C=CC(=O)Nc1cccc(C(=O)Nc2ccc(Nc3cc(-c4[nH]c(SC)nc4C)ccn3)cc2)c1
